# Measurements published in publication PMC6864590, “Planar Cell Polarity Effector Proteins Inturned and Fuzzy Form a Rab23 GEF Complex” (Current Biology, 2019).
# Numbering of substitutions follows the chain as printed.
# How the values were obtained:
# Rab23 [1] = molecular target: T1, Rab23 (Homo sapiens, UniProt Q9ULC3, N121I); assay: radiolabelled nucleotide binding, GST pull-down; conditions: labelled compound; pH 6.8
# T1 construct: hexahistidine-GST-tagged (pFAT2), expressed in E. coli BL21(DE3) pRIL, Ni-NTA purified, tags kept
# T1 sequence (Q9ULC3 1-237 N121I limits assumed): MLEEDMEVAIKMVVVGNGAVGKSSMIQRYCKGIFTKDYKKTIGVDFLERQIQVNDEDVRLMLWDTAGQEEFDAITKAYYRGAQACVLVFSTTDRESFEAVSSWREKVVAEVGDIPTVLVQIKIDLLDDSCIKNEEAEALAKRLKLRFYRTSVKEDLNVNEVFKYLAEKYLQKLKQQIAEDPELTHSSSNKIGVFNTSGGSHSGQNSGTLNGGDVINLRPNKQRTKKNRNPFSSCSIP
# Rab32 = molecular target: T2, Rab32 (Homo sapiens, UniProt Q13637); assay: [3H]-GDP release GEF endpoint assay, glutathione-Sepharose capture; assay type: binding; conditions: labelled compound; Hps1-Hps4 GEF, Mg-GTP, pH 6.8, 30°C
# T2 construct: GST-tagged (pFAT2), expressed in E. coli BL21(DE3) pRIL, Ni-NTA purified
# T2 sequence (Q13637 2-225): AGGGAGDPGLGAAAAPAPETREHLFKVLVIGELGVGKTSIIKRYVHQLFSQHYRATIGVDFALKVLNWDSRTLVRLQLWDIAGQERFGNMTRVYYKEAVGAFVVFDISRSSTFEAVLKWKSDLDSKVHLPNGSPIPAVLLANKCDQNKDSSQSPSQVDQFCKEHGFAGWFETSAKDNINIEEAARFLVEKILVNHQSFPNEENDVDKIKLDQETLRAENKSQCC
# Rab23 [2] = molecular target: T3, Rab23 (Homo sapiens, UniProt Q9ULC3, M12K); assay: radiolabelled nucleotide binding, GST pull-down; conditions: labelled compound; pH 6.8
# T3 construct: hexahistidine-GST-tagged (pFAT2), expressed in E. coli BL21(DE3) pRIL, Ni-NTA purified, tags kept
# T3 sequence (Q9ULC3 1-237 M12K limits assumed): T1 sequence (Q9ULC3 1-237 N121I limits assumed) with M12K, I121N
# Rab23 [3] = molecular target: T4, Rab23 (Homo sapiens, UniProt Q9ULC3, C85R); assay: radiolabelled nucleotide binding, GST pull-down; conditions: labelled compound; pH 6.8
# T4 construct: hexahistidine-GST-tagged (pFAT2), expressed in E. coli BL21(DE3) pRIL, Ni-NTA purified, tags kept
# T4 sequence (Q9ULC3 1-237 C85R limits assumed): T1 sequence (Q9ULC3 1-237 N121I limits assumed) with C85R, I121N
# Rab23 [4] = molecular target: T5, Rab23 (Homo sapiens, UniProt Q9ULC3); assay: [3H]-GDP release GEF endpoint assay, glutathione-Sepharose capture; assay type: binding; conditions: labelled compound; Intu-Fuz GEF, Mg-GTP, pH 6.8, 30°C
# T5 construct: hexahistidine-GST-tagged (pFAT2), expressed in E. coli BL21(DE3) pRIL, Ni-NTA purified, tags kept
# T5 sequence (Q9ULC3 1-237 limits assumed): T1 sequence (Q9ULC3 1-237 N121I limits assumed) with I121N
# Rab38 = molecular target: T6, Rab38 (Homo sapiens, UniProt P57729); assay: as above; assay type: binding; conditions: labelled compound; Hps1-Hps4 GEF, Mg-GTP, pH 6.8, 30°C
# T6 construct: GST-tagged (pFAT2), expressed in E. coli BL21(DE3) pRIL, Ni-NTA purified
# T6 sequence (P57729 1-211): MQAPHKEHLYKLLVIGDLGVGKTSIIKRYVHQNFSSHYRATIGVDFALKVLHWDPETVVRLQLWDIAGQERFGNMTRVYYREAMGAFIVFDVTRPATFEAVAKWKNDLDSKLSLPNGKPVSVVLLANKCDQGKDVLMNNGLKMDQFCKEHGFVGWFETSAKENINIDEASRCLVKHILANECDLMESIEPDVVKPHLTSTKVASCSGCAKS
# Rab7 = molecular target: T7, Rab7 (Homo sapiens, UniProt P51149); assay: as above; assay type: binding; conditions: labelled compound; Mon1-Ccz1 GEF, Mg-GTP, pH 6.8, 30°C
# T7 construct: gene RAB7A; GST-tagged (pFAT2), expressed in E. coli BL21(DE3) pRIL, Ni-NTA purified
# T7 sequence (P51149 2-207): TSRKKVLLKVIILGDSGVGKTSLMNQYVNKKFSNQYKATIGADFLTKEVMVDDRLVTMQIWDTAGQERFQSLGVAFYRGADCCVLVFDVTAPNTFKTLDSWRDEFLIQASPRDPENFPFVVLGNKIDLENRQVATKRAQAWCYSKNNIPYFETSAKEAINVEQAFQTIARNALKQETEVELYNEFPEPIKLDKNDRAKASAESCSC
# Rab23 [5] = molecular target: T3, Rab23; assay: basal GTP hydrolysis endpoint, charcoal assay; assay type: biochemical; conditions: labelled compound; 30°C, 60 min, no GAP
# Rab23 [6] = molecular target: T1, Rab23; assay: basal GTP hydrolysis endpoint, charcoal assay; assay type: biochemical; conditions: labelled compound; 30°C, 60 min, no GAP
# Rab23 [7] = molecular target: T5, Rab23; assay: basal GTP hydrolysis endpoint, charcoal assay; assay type: biochemical; conditions: labelled compound; 30°C, 60 min, no GAP
# Rab23 [8] = molecular target: T4, Rab23; assay: basal GTP hydrolysis endpoint, charcoal assay; assay type: biochemical; conditions: labelled compound; 30°C, 60 min, no GAP
Structure (SMILES),GDP binding (Rab23 [1]),GDP-GTP exchange (pmol) (Rab32),GDP binding (Rab23 [2]),GDP binding (Rab23 [3]),GDP-GTP exchange (pmol) (Rab23 [4]),GDP-GTP exchange (pmol) (Rab38),GDP-GTP exchange (pmol) (Rab7),GTP hydrolysis (Rab23 [5]),GTP hydrolysis (Rab23 [6]),GTP hydrolysis (Rab23 [7]),GTP hydrolysis (Rab23 [8])
Nc1nc2c(ncn2[C@@H]2O[C@H](COP(=O)(O)OP(=O)(O)O)[C@@H](O)[C@H]2O)c(=O)[nH]1 [GDP],Both Rab23^N121I and the two disease-associated mutants have reduced GDP-binding properties (Figure S3G),"comparable to the Rab7 and Rab32/38-specific GEFs Mon1-Ccz1 and Hps1-Hps4, respectively (Figure 1D)",Both Rab23^N121I and the two disease-associated mutants have reduced GDP-binding properties (Figure S3G),Both Rab23^N121I and the two disease-associated mutants have reduced GDP-binding properties (Figure S3G),Intu-Fuz complexes show specific GEF activity toward Rab23,"comparable to the Rab7 and Rab32/38-specific GEFs Mon1-Ccz1 and Hps1-Hps4, respectively (Figure 1D)","comparable to the Rab7 and Rab32/38-specific GEFs Mon1-Ccz1 and Hps1-Hps4, respectively (Figure 1D)",–,–,–,–
Nc1nc2c(ncn2[C@@H]2O[C@H](COP(=O)(O)OP(=O)(O)OP(=O)(O)O)[C@@H](O)[C@H]2O)c(=O)[nH]1 [GTP],–,–,–,–,–,–,–,show an increased rate of basal GTP-hydrolysis (Figure S3H),show an increased rate of basal GTP-hydrolysis (Figure S3H),show an increased rate of basal GTP-hydrolysis (Figure S3H),show an increased rate of basal GTP-hydrolysis (Figure S3H)
